Source: PubChem BioAssay (NCI)
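Exposure lasted 48 hours, with cells grown in 96-well plates and compounds tested at five concentrations. TGI: total growth inhibition.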

Assays:
Experiment in all cases: inhibition of tumour cell growth, NCI panel, 48 h
SK-MEL-2 melanoma = tested on: SK-MEL-2 melanoma
HCC-2998 colon = tested on: HCC-2998 colon
HOP-92 NSCLC = tested on: HOP-92 NSCLC
SF-539 CNS = tested on: SF-539 CNS
PC-3 prostate = tested on: PC-3 prostate
NCI/ADR-RES ovarian = tested on: NCI/ADR-RES ovarian
OVCAR-3 ovarian = tested on: OVCAR-3 ovarian
M14 melanoma = tested on: M14 melanoma
MDA-MB-231 breast = tested on: MDA-MB-231 breast
OVCAR-4 ovarian = tested on: OVCAR-4 ovarian

SMILES	TGI (SK-MEL-2 melanoma) [µM]	TGI (HCC-2998 colon) [µM]	TGI (HOP-92 NSCLC) [µM]	TGI (SF-539 CNS) [µM]	TGI (PC-3 prostate) [µM]	TGI (NCI/ADR-RES ovarian) [µM]	TGI (OVCAR-3 ovarian) [µM]	TGI (M14 melanoma) [µM]	TGI (MDA-MB-231 breast) [µM]	TGI (OVCAR-4 ovarian) [µM]
O=C1O/C(=C\c2ccc(O)cc2)C(c2ccc(O)c(Cl)c2)=C1Br	28.5	23.6	32.1	29.1	23.7	65.4	21.1	26.4	59.9	38.4
O=C(CCCN1CCc2[nH]c3cc(F)ccc3c2C1)c1ccc(F)cc1	32.4	11.9	8.59	30.5	25.7	36.1	28.1	22.2	25.5	26.9
BrCC[P+](c1ccccc1)(c1ccccc1)c1ccccc1	16.7	27.2	13.1	35.3	17.3	27.5	11.7	18	34.8	23.1
CN(C)CCNc1nc2ccccc2c2c1C(=O)c1ccccc1-2	1.55	0.511	3.07	3.04	1.9	2.06	8.4	1.67	2.62	1.41
COC1=CC2(C=CC1=O)CCN=c1c(O)c3c(c(O)c12)=NC=N3 (stereo not given)	> 100	> 100	> 100	> 100	> 100	> 100	> 100	> 100	> 100	> 100
COc1ccc(C[C@H]2COC(=O)[C@@H]2Cc2cc(OC)c(OC)c(OC)c2)cc1OC	> 100	> 100	> 100	> 100	> 100	> 100	> 100	> 100	> 100	> 100
C=C(CCC(C(=O)O)C1CCC2(C)C3=C(CCC12C)C1(C)CCC(O)C(C)(C)C1CC3)C(C)C (stereo not given)	> 100	> 100	> 100	> 100	> 100	70.5	> 100	> 100	> 100	> 100
CSc1nc(Br)nc2c1ncn2C1CC(Oc2ccc(C)cc2)C(COc2ccc(C)cc2)O1 (stereo not given)	> 100	> 100	> 100	> 100	> 100	> 100	> 100	> 100	> 100	> 100
COC(=O)CCc1ccc2c(c1)CC1(C2)Cc2ccc(CCC(=O)OC)cc2C1	> 100	> 100	99.7	> 100	> 100	> 100	> 100	> 100	> 100	> 100
